Structures can show the parent of a compound that is named as a salt.

The test system of the first series is mice. The experiment in a line: Convulsivant threshold dose (same experiments as acute toxicity). The series is classed as in vivo, mouse. The following applies: i.p.; mice; minimum dose for which a convulsivant activity begins to show. As to the method: (§1) The products to be studied were administered by the intraperitoneal route in increasing doses to batches of 10 mice. The mortality provoked by the products studied was noted during the 24 hours following administration of the product.
During the same experiments, the convulsivant threshold dose of the product is also noted, i.e. the minimum dose for which a convulsivant activity begins to show.
`COc1ccc(-c2cc(C)c(NCCN3CCOCC3)nn2)cc1` [CM 30073, reference compound] had a Convulsivant threshold dose of 5 mg/kg.

Staying with this series, now noted: mouse, in vivo, ip.
In turn, `Cc1cc(-c2ccc(O)cc2)nnc1N` [SR 95087, 3-amino 4-methyl 6-(4-hydroxyphenyl)pyridazine] came in with a Convulsivant threshold dose of over 200 mg/kg.

For `Cc1cc(-c2cccc(O)c2)nnc1NCCN1CCOCC1` [SR 95082, 3-(2-morpholinoethylamino)4-methyl 6-(3-hydroxyphenyl)pyridazine], the Convulsivant threshold dose was over 200 mg/kg.

Turning to `Cc1cc(-c2ccccc2)nnc1NCC[N+]1([O-])CCOCC1` [SR 30490, N-OXIDE of 3-(2-MORPHOLINO ETHYLAMINO 4-METHYL 6-PHENYL PYRIDAZINE], the Convulsivant threshold dose is reported as 300 mg/kg.

`Cc1cc(-c2ccccc2)nnc1NCCN1CCOCC1` [Minaprine, reference compound]: the Convulsivant threshold dose came out at 35 mg/kg.

With `Cc1cc(-c2ccccc2)nnc1N` [CM 30465, 3-AMINO 4-METHYL 6-PHENYL PYRIDAZINE(HYDROCHLORIDE)], the Convulsivant threshold dose was determined as 200 mg/kg.

The compound `Cc1cc(-c2ccccc2O)nnc1NCCN1CCOCC1` [SR 95070, 3-(2-morpholinoethylamino)4-methyl 6-(2-hydroxyphenyl)pyridazine] gave a Convulsivant threshold dose of 200 mg/kg.

`Br.Br.Cc1cc(-c2ccc(O)cc2)nnc1NCCN1CCOCC1` [CM 30366, 3-(2-MORPHOLINO ETHYLAMINO)4-METHYL 6-(4-HYDROXY PHENYL)PYRIDAZINE DIHYDROBROMIDE] came in with a Convulsivant threshold dose of 200 mg/kg.

Consider `CCN(CCO)CCNc1nnc(-c2ccccc2)cc1C` [SR 95084, 3-{2-[N-ethyl(2-hydroxyethylamino)]ethylamino}4-methyl 6-phenyl pyridazine], for which the Convulsivant threshold dose was 200 mg/kg.

The compound `Cc1cc(-c2ccccc2)nnc1NCCN1CCOCC1=O` [CM 30488, 3-[2-(3-OXO 4-MORPHOLINYL)ETHYLAMINO]4-METHYL 6-PHENYL PYRIDAZINE, HYDROCHLORIDE] had a Convulsivant threshold dose of 300 mg/kg.

Turning to `Cc1cc(-c2ccccc2)nnc1NCCNCCO` [CM 30311, 3-[2-(2-HYDROXY ETHYLAMINO)ETHYLAMINO]4-METHYL 6-PHENYL PYRIDAZINE, DIHYDROCHLORIDE], the Convulsivant threshold dose is on record as 200 mg/kg.

System in a further series: not listed separately
The experiment in a line: Acute toxicity (LD50, 24 hours, intraperitoneal). The conditions noted are these: mouse, in vivo, ip. As to the method:
as §1
From the results obtained, the lethal dose 50, i.e. the dose provoking the death of 50% of the animals studied, is determined for each of the products studied.
In the case of `Cc1cc(-c2ccccc2)nnc1NCC[N+]1([O-])CCOCC1` [SR 30490, N-OXIDE of 3-(2-MORPHOLINO ETHYLAMINO 4-METHYL 6-PHENYL PYRIDAZINE], the LD50 (usually the dose expected to kill half of the subjects tested) at 24 h was over 200 mg/kg.

In turn, `Cc1cc(-c2ccccc2)nnc1N` [CM 30465, 3-AMINO 4-METHYL 6-PHENYL PYRIDAZINE(HYDROCHLORIDE)] had a 50% lethal dose (LD50) at 24 h of 226 mg/kg.

`Br.Br.Cc1cc(-c2ccc(O)cc2)nnc1NCCN1CCOCC1` [CM 30366, 3-(2-MORPHOLINO ETHYLAMINO)4-METHYL 6-(4-HYDROXY PHENYL)PYRIDAZINE DIHYDROBROMIDE] returned an LD50 at 24 h of over 200 mg/kg.

`Cc1cc(-c2ccccc2)nnc1NCCN1CCOCC1=O` [CM 30488, 3-[2-(3-OXO 4-MORPHOLINYL)ETHYLAMINO]4-METHYL 6-PHENYL PYRIDAZINE, HYDROCHLORIDE] registered a median lethal dose (LD50) at 24 h of over 300 mg/kg.

The compound `Cc1cc(-c2ccccc2)nnc1NCCNCCO` [CM 30311, 3-[2-(2-HYDROXY ETHYLAMINO)ETHYLAMINO]4-METHYL 6-PHENYL PYRIDAZINE, DIHYDROCHLORIDE] had an LD50 at 24 h of over 200 mg/kg.

Staying with this series, now noted: mouse, in vivo, ip; mice; mortality during 24 hours.
The compound `Cc1cc(-c2ccc(O)cc2)nnc1N` [SR 95087, 3-amino 4-methyl 6-(4-hydroxyphenyl)pyridazine] had an LD50 at 24 h of over 200 mg/kg.

Compound `Cc1cc(-c2cccc(O)c2)nnc1NCCN1CCOCC1` [SR 95082, 3-(2-morpholinoethylamino)4-methyl 6-(3-hydroxyphenyl)pyridazine] had a median lethal dose (LD50) at 24 h of over 200 mg/kg.

`COc1ccc(-c2cc(C)c(NCCN3CCOCC3)nn2)cc1` [CM 30073, reference compound]: the LD50 at 24 h was 19 mg/kg.

In the case of `Cc1cc(-c2ccccc2O)nnc1NCCN1CCOCC1` [SR 95070, 3-(2-morpholinoethylamino)4-methyl 6-(2-hydroxyphenyl)pyridazine], the median lethal dose (LD50) at 24 h was over 200 mg/kg.

On to `CCN(CCO)CCNc1nnc(-c2ccccc2)cc1C` [SR 95084, 3-{2-[N-ethyl(2-hydroxyethylamino)]ethylamino}4-methyl 6-phenyl pyridazine], for which the 50% lethal dose (LD50) at 24 h lay in the range of 100 to 200 mg/kg.

System in another series: not given
Experiment: not given
The following applies: in vivo; cited from earlier work.
With `Cc1cc(-c2ccccc2)nnc1NCCN1CCOCC1` [Minaprine, reference compound], the “type of psychotherapeutic action” value is recorded as “"disinhibitory" activity”.

The same series, now with this note: per os; cited from earlier work.
In the case of `Cc1cc(-c2ccccc2)nnc1NCCN1CCOCC1` [Minaprine, reference compound], the “dose above which convulsivant” value is “higher than 100 mg/kg”.

In a further series the test system is despair reaction (duration of immobilisation). Nature of the series: Despair reaction ("Behavioral Despair"). It is filed as in vivo, female mouse, CDI (Charles River). The following applies: 10 mg/kg i.p., 1 hour before test; immobile time between 2nd and 6th minute. As to the method: This test was carried out on the female mouse, CDI (Charles River), weighing 18 to 23 g, according to the method described by Porsolt (Archives Internationales de Pharmacodynamie, 1977, 229, 327-336). The principle of this test is as follows: when a mouse is placed in a narrow recipient filled with water, it struggles, then, after 2 to 4 mins., it becomes still and floats on its stomach, its back rounded, its rear paws drawn up under its body and it makes only a few movements necessary for holding its head out of the water. This is the so-called despair reaction. Certain psychotherapeutic agents, particularly antidepressants, extend the time during which the mouse struggles. The products to be studied were administered by the i.p. route 1 hour before the test. For the test, the animals are placed in a narrow recipient (10×10×10 cm) filled with water up to a height of 6 cm, the temperature of the water being 24° C.±2° C. The animals are left 6 minutes in the water and the time when the animal remains immobile between the 2nd and the 6th minute is measured--the shorter this time, the more the substance is active. Each substance was studied on a batch of 10 mice. The results are the average of at least two experiments.
For the compound `Cc1cc(-c2ccccc2)nnc1NCCN1CCOCC1` [Minaprine, reference compound], the “"Behavioral Despair" % of reduction of the duration of immobilisation” value was -35%.

In the case of `Cc1cc(-c2ccccc2)nnc1N` [CM 30465, 3-AMINO 4-METHYL 6-PHENYL PYRIDAZINE(HYDROCHLORIDE)], the “"Behavioral Despair" % of reduction of the duration of immobilisation” value is -24%.

Regarding `Br.Br.Cc1cc(-c2ccc(O)cc2)nnc1NCCN1CCOCC1` [CM 30366, 3-(2-MORPHOLINO ETHYLAMINO)4-METHYL 6-(4-HYDROXY PHENYL)PYRIDAZINE DIHYDROBROMIDE], the “"Behavioral Despair" % of reduction of the duration of immobilisation” value is -31%.

For a further series, the system named is ptosis induced by reserpine. Nature of the series: Antagonism of the ptosis induced by reserpine. The series is classed as in vivo, female mouse CDI (Charles River). The conditions noted are these: 1 mg/kg i.p.; reserpine 2 mg/kg i.v.; 1 hour. Here is the method: This test, described by GOURET (Journal de Pharmacologie (Paris), 1973, 4(1), 105-128), was carried out on the female mouse CDI (Charles River) weighing 20±1 g. The reserpine provokes a ptosis one hour after intravenous administration thereof; certain antidepressants oppose this ptosis.
The substances to be studied were administered by the i.p. route. The reserpine is administered simultaneously by the intravenous route at the dose of 2 mg/kg. One hour after administration of the reserpine, the number of animals not presenting ptosis is noted.
This test was carried out on batches of 10 mice, the results are expressed in percentage of animals not presenting ptosis and are the average of at least two experiments.
`COc1ccc(-c2cc(C)c(NCCN3CCOCC3)nn2)cc1` [CM 30073, reference compound]: the “Antagonism of the ptosis induced by reserpine (percentage of animals not presenting ptosis)” value amounted to 30%.

The series is the same for the next values; noted with them: 5 mg/kg i.p.; reserpine 2 mg/kg i.v.; 1 hour.
For the compound `COc1ccc(-c2cc(C)c(NCCN3CCOCC3)nn2)cc1` [CM 30073, reference compound], the “Antagonism of the ptosis induced by reserpine (percentage of animals not presenting ptosis)” value is 60%.

Staying with this series, now noted: Mus musculus, ip; reserpine 2 mg/kg i.v.; 1 hour.
On to `Cc1cc(-c2ccccc2)nnc1NCC[N+]1([O-])CCOCC1` [SR 30490, N-OXIDE of 3-(2-MORPHOLINO ETHYLAMINO 4-METHYL 6-PHENYL PYRIDAZINE], for which the median effective dose (ED50) (in general, the dose that gives a 50% effect, or the effect in half of the subjects) was about 50 mg/kg.

On to `Cc1cc(-c2ccccc2)nnc1NCCN1CCOCC1` [Minaprine, reference compound], for which it took a dose of 5 mg/kg to reach the 50% effect level (ED50).

Regarding `Cc1cc(-c2ccccc2)nnc1N` [CM 30465, 3-AMINO 4-METHYL 6-PHENYL PYRIDAZINE(HYDROCHLORIDE)], the median effective dose (ED50) was 8.6 mg/kg.

Consider `Br.Br.Cc1cc(-c2ccc(O)cc2)nnc1NCCN1CCOCC1` [CM 30366, 3-(2-MORPHOLINO ETHYLAMINO)4-METHYL 6-(4-HYDROXY PHENYL)PYRIDAZINE DIHYDROBROMIDE], for which the ED50 was found to be 12 mg/kg.

Regarding `Cc1cc(-c2ccccc2)nnc1NCCN1CCOCC1=O` [CM 30488, 3-[2-(3-OXO 4-MORPHOLINYL)ETHYLAMINO]4-METHYL 6-PHENYL PYRIDAZINE, HYDROCHLORIDE], the 50% effect level (ED50) was put at a dose of 20 mg/kg. This ED50 lies about 1.7-fold higher than the previous one.

In a further series the test system is striatal dopaminergic receptors. The experiment in a line: Dopaminomimetic activity (rotations after unilateral lesion of nigrostriatal dopaminergic neurones). It is filed as in vivo, mouse. The conditions noted are these: 5.3 μmoles/kg i.p. An excerpt: The dopaminomimetic activity of the products of the invention was studied on the striatal dopaminergic receptors of the mouse according to the technique described by P. PROTAIS and J. COSTENTIN, Journal de Pharmacologie (Paris), 7, 251-255 (1976).
The unilateral lesion of the nigrostriatal dopaminergic neurones induces a hypersensitivity of the receptors of the dopamine at the level of the striatum.
After administration of the products to be studied by the intraperitoneal route, the number of rotations made by the animal is counted for a period of 2 minutes.
The results are expressed in the form of percentage of the variations with respect to the controls not having received the product to be studied.
Take `Cc1cc(-c2ccccc2)nnc1NCCN1CCOC(=O)C1` [CM 30489, 3-[2-(2-OXO 4-MORPHOLINYL)ETHYLAMINO]4-METHYL 6-PHENYL PYRIDAZINE, DIHYDROCHLORIDE]: the “Average number of ipsilateral rotations in 2 minutes, % with respect to controls” value (“Average number … % with respect to controls” below) is -97%.

Turning to `Cc1cc(-c2ccccc2)nnc1NCCN1CCOCC1` [Minaprine, reference compound], the “Average number … % with respect to controls” value is given as -91%.

On to `COc1ccc(-c2cc(C)c(NCCN3CCOCC3)nn2)cc1` [CM 30073, reference compound], for which the “Average number … % with respect to controls” value stood at 0%.

Consider `Cc1cc(-c2ccccc2)nnc1N` [CM 30465, 3-AMINO 4-METHYL 6-PHENYL PYRIDAZINE(HYDROCHLORIDE)], for which the “Average number … % with respect to controls” value is reported as -89%.

As to `Cc1cc(-c2ccccc2O)nnc1NCCN1CCOCC1` [SR 95070, 3-(2-morpholinoethylamino)4-methyl 6-(2-hydroxyphenyl)pyridazine], the “Average number … % with respect to controls” value is reported as -89%.

`Br.Br.Cc1cc(-c2ccc(O)cc2)nnc1NCCN1CCOCC1` [CM 30366, 3-(2-MORPHOLINO ETHYLAMINO)4-METHYL 6-(4-HYDROXY PHENYL)PYRIDAZINE DIHYDROBROMIDE]: the “Average number … % with respect to controls” value was -111%.

For `Cc1cc(-c2ccccc2)nnc1NCCN1CCOCC1=O` [CM 30488, 3-[2-(3-OXO 4-MORPHOLINYL)ETHYLAMINO]4-METHYL 6-PHENYL PYRIDAZINE, HYDROCHLORIDE], the “Average number … % with respect to controls” value is -90%.

Consider `Cc1cc(-c2ccccc2)nnc1NCCNCCO` [CM 30311, 3-[2-(2-HYDROXY ETHYLAMINO)ETHYLAMINO]4-METHYL 6-PHENYL PYRIDAZINE, DIHYDROCHLORIDE], for which the “Average number … % with respect to controls” value was -146%.

These data come from patent US4576946A, “Derivatives of 4-methyl 6-phenyl pyridazine active on the central nervous system” (Sanofi, priority 1981, dated 1986).
